Earlier results, collected in patent publication US20210128641A1, “COMPOSITIONS AND METHODS FOR TREATING SKIN AND MUCOUS MEMBRANE DISEASES” (The Regents of the University of California, priority 2014, published 2021).

Key:
Propionibacterium acnes = details: in vitro
keratinocytes = details: in vitro

Row | Substance | growth of Propionibacterium acnes on agar plates (Propionibacterium acnes) | death of keratinocytes caused by Staphylococcus aureus (keratinocytes)
1 | Lactobacillus plantarum | inhibit growth | 
2 | Lactobacillus reuteri |  | reduced death
3 | Lactobacillus acidophilus | inhibit growth | 
